Values after ≈ are worked out from the molar mass of the structure shown. “Also recorded” adds a separate entry of the source.
Columns and labels:
Type in all cases: physicochemical
Solubility test in water = settings: for Solubility in water: stirred at room temperature; for Solubility compared with that of crystalline form A: room temperature, relative to crystalline form A
Description: After crystalline forms Y and S of lifitegrast obtained from the Examples and crystalline form A of lifitegrast obtained from the Comparative Example were dissolved in water, respectively, they were sufficiently stirred at room temperature to perform a solubility test.

[1] = Hygroscopicity test (DVS); settings: for Moisture Absorption at 25° C./80% RH: DVS, isothermal 25° C.; for Hygroscopicity (DVS analysis, in words): 25° C., relative humidity 5-95%, EP standard 25° C., 80% RH
Description: Using a DVS (dynamic vapor absorption, VTI SGA-100, TA Instruments) which is a vapor adsorption and desorption device, crystalline forms Y and S of lifitegrast obtained from the Examples and crystalline form A of lifitegrast obtained from the Comparative Example were subjected to moisture adsorption and desorption once repeatedly, respectively, at an isothermal condition of 25° C. and in a relative humidity range of 5-95% with an interval of 5% RH.

[2] = Thermal stability test (XRPD and HPLC after storage); settings: 40° C./75% RH, 4 weeks, brown vial in aluminum pouch
Description: 50 mg of crystalline form Y and 50 mg of crystalline form S obtained from the Examples were put into brown vials, respectively, and secondary packaging was carried out in an aluminum pouch, followed by storing at 40±2° C. and 75±5% RH. After 4 weeks, each sample was taken out, X-ray powder diffraction (XRPD) analysis was performed to evaluate the stability of the crystalline form, and high performance liquid chromatography (HPLC) analysis was performed to evaluate the generation and increase of related substances.
The results of the X-ray powder diffraction (XRPD) analysis and high performance liquid chromatography (HPLC) analysis are shown in Table 5 and 6, respectively.

Solubility in water (Solubility test in water) [mg/mL]	Moisture Absorption at 25° C./80% RH [1] [%]	Solubility compared with that of crystalline form A (Solubility test in water)	Structure (SMILES)	Generation and increase of related substances (HPLC analysis) [2]	Stability of the crystalline form (XRPD analysis) [2]	Hygroscopicity (DVS analysis, in words) [1]
0.032 (≈ 52 µM)	1.0		CS(=O)(=O)c1cccc(C[C@H](NC(=O)c2c(Cl)cc3c(c2Cl)CCN(C(=O)c2ccc4ccoc4c2)C3)C(=O)O)c1 [Crystalline Form A, lifitegrast]			
0.064 (≈ 104 µM)	0.1	twice or more	CS(=O)(=O)c1cccc(C[C@H](NC(=O)c2c(Cl)cc3c(c2Cl)CCN(C(=O)c2ccc4ccoc4c2)C3)C(=O)O)c1 [Crystalline Form S, lifitegrast]	no related substance was observed; also recorded: No generation of Related	did not change in appearance and polymorphism; also recorded: Retention of Crystalline Form	low hygroscopicity; also recorded: lower hygroscopicity than the crystalline form A
0.067 (≈ 109 µM)	2.9	twice or more	CS(=O)(=O)c1cccc(C[C@H](NC(=O)c2c(Cl)cc3c(c2Cl)CCN(C(=O)c2ccc4ccoc4c2)C3)C(=O)O)c1 [Crystalline Form Y, lifitegrast]	no related substance was observed; also recorded: No generation of Related	did not change in appearance and polymorphism; also recorded: Retention of Crystalline Form	low hygroscopicity

Source: patent US12492192B2, “Crystalline form of lifitegrast, and pharmaceutical composition comprising the same” (YS LIFE SCIENCE CO. LTD., priority 2020, dated 2025)
